Data reported in the supplement of paper PMC8253809.

Columns and labels:
HGGX42 = H3.3 G34R paediatric high-grade glioma line; assay: growth inhibition relative to DMSO (0) and positive control (1) (fraction); higher = more growth inhibition
Experimental: (§1)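 Paxalisib (GDC0084) x mirdametinib (PD0325901) dose matrix on pHGG cell lines and astrocyte controls, 7 days, adherent 384-well. CellTiter-Glo RLU was normalised (no log2) to fractional activity between DMSO (0) and the positive control (1). Each combination was tested in two plate orientations.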

HABS = astrocyte control; assay: as above
Experimental: as §1

CC1(C)OCCn2c1nc1c(N3CCOCC3)nc(-c3cnc(N)nc3)nc12 [GDC0084] + O=C(NOC[C@H](O)CO)c1ccc(F)c(F)c1Nc1ccc(I)cc1F [PD0325901]
growth inhibition
Details	compound 1 concentration 0.009766 µM	compound 1 concentration 0.01953 µM	compound 1 concentration 0.03906 µM	compound 1 concentration 0.07812 µM	compound 1 concentration 0.15625 µM	compound 1 concentration 0.3125 µM	compound 1 concentration 0.625 µM	compound 1 concentration 1.25 µM	compound 1 concentration 5 µM	compound 1 concentration 20 µM
HABS, compound 2 concentration 0.03906 µM	-0.37	-0.333	-0.284	-0.211	-0.192	-0.0322	0.16	0.363	0.773	0.974
HABS, compound 2 concentration 0.07812 µM	-0.231	-0.228	-0.183	-0.184	-0.0583	0.0322	0.187	0.365	0.734	0.954
HABS, compound 2 concentration 0.15625 µM	-0.225	-0.157	-0.11	-0.0914	0.000284	0.0786	0.237	0.371	0.734	0.943
HABS, compound 2 concentration 0.3125 µM	-0.0761	-0.0499	-0.0388	0.00861	0.0797	0.184	0.292	0.419	0.718	0.923
HABS, compound 2 concentration 0.625 µM	0.163	0.146	0.187	0.252	0.293	0.374	0.474	0.574	0.798	0.946
HABS, compound 2 concentration 1.25 µM	0.291	0.301	0.34	0.347	0.406	0.457	0.538	0.624	0.807	0.966
HABS, compound 2 concentration 5 µM	0.677	0.695	0.698	0.722	0.793	0.854	0.895	0.922	0.982	0.999
HABS, compound 2 concentration 20 µM	0.792	0.82	0.846	0.876	0.911	0.94	0.968	0.986	0.999	1
HGGX42, compound 2 concentration 0.03906 µM	-0.12	-0.197	0.0384	0.0281	0.284	0.461	0.656	0.736	0.874	0.903
HGGX42, compound 2 concentration 0.07812 µM	-0.0889	-0.0669	-0.00719	0.153	0.248	0.404	0.631	0.729	0.855	0.919
HGGX42, compound 2 concentration 0.15625 µM	-0.145	-0.107	-0.0597	0.0866	0.181	0.411	0.625	0.714	0.835	0.915
HGGX42, compound 2 concentration 0.3125 µM	-0.136	0.0502	-0.0893	0.0398	0.184	0.318	0.582	0.644	0.788	0.89
HGGX42, compound 2 concentration 0.625 µM	-0.166	-0.0808	-0.0757	0.0763	0.176	0.471	0.532	0.677	0.822	0.896
HGGX42, compound 2 concentration 1.25 µM	-0.0698	-0.0338	-0.0377	0.08	0.227	0.394	0.576	0.727	0.866	0.908
HGGX42, compound 2 concentration 5 µM	0.307	0.337	0.354	0.431	0.481	0.564	0.688	0.774	0.907	0.95
HGGX42, compound 2 concentration 20 µM	0.486	0.554	0.507	0.615	0.653	0.772	0.853	0.913	0.975	0.985
